Assay results from ChEMBL document CHEMBL1153258, “Synthesis and antiviral activity of 3-substituted imidazo[1,2-a]pyridines” (Bioorg Med Chem Lett, 1994).
≈ marks a conversion by molar mass, not a printed value.

What was measured:
E6SM [1] = assay: Antiviral activity (to reduce virus-induced cytopathogenicity) against Herpes simplex virus-1(KOS) in E6SM cell cultures; assay type: functional; conditions: Homo sapiens
Vero [2] = assay: Antiviral activity (to reduce virus-induced cytopathogenicity) against Parainfluenza-3 virus in vero cells; assay type: functional; conditions: Chlorocebus sabaeus
HeLa [3] = assay: Antiviral activity (to reduce virus-induced cytopathogenicity) against Coxsackie virus B4 in HeLa cells; assay type: functional; conditions: Homo sapiens
E6SM [4] = assay: Antiviral activity (to reduce virus-induced cytopathogenicity) against Herpes simplex virus-1 TK-VMW1837 in E6SM cell cultures; assay type: functional; conditions: Homo sapiens
E6SM [5] = assay: Cytotoxicity (to alter cell morphology) against E6SM cell cultures; assay type: functional; conditions: Homo sapiens
E6SM [6] = assay: Antiviral activity (to reduce virus-induced cytopathogenicity) against Vesicular stomatitis virus in E6SM cell cultures; assay type: functional; conditions: Homo sapiens
E6SM [7] = assay: Antiviral activity (to reduce virus-induced cytopathogenicity) against Herpes simplex virus-2 (G) in E6SM cell cultures; assay type: functional; conditions: Homo sapiens
Vero [8] = assay: Antiviral activity (to reduce virus-induced cytopathogenicity) against Reovirus-1 in vero cells; assay type: functional; conditions: Chlorocebus sabaeus
HeLa [9] = assay: Cytotoxicity (to alter cell morphology) against HeLa cells; assay type: functional; conditions: Homo sapiens
E6SM [10] = assay: Antiviral activity (to reduce virus-induced cytopathogenicity) against Vaccinia virus in E6SM cell cultures; assay type: functional; conditions: Homo sapiens
HeLa [11] = assay: Antiviral activity (to reduce virus-induced cytopathogenicity) against Vesicular stomatitis virus in HeLa cells; assay type: functional; conditions: Homo sapiens
Vero [12] = assay: Antiviral activity (to reduce virus-induced cytopathogenicity) against forest virus in vero cells; assay type: functional; conditions: Chlorocebus sabaeus
HeLa [13] = assay: Antiviral activity (to reduce virus-induced cytopathogenicity) against Polio virus-I in HeLa cells; assay type: functional; conditions: Homo sapiens
Vero [14] = assay: Antiviral activity (to reduce virus-induced cytopathogenicity) against Sindbis virus in vero cells; assay type: functional; conditions: Chlorocebus sabaeus
E6SM [15] = assay: Antiviral activity (to reduce virus-induced cytopathogenicity) against Herpes simplex virus-1 TK-B2006 in E6SM cell cultures; assay type: functional; conditions: Homo sapiens
Vero [16] = assay: Antiviral activity (to reduce virus-induced cytopathogenicity) against Coxsackie virus in vero cells; assay type: functional; conditions: Chlorocebus sabaeus
Vero [17] = assay: Minimum cytotoxic concentration (to alter cell morphology) against vero cells; assay type: functional; conditions: Chlorocebus sabaeus
HEL [18] = assay: Cytotoxicity (to alter cell morphology) against Cytomegalovirus in human embryonic lung (HEL) cells; assay type: functional
HEL [19] = assay: Antiviral activity against Cytomegalovirus (Davis strain) to reduce plaque formation in human embryonic lung (HEL) cells; assay type: functional, cell-based
[20] = Cytotoxicity (to reduce cell growth) against Varicella-Zoster virus in human embryonic lung (HEL) cells; assay type: cell-based
HEL [21] = assay: Antiviral activity against thymidine kinase-negative (TK-) YS/R strain of Varicella zoster virus to reduce plaque formation in human embryonic lung (HEL) cells; assay type: functional, cell-based
HEL [22] = assay: Antiviral activity against thymidine kinase-negative (TK-) O7/1 strain of Varicella zoster virus to reduce plaque formation in human embryonic lung (HEL) cells; assay type: functional, cell-based
HEL [23] = assay: Antiviral activity against Cytomegalovirus (AD-169 strain) to reduce plaque formation in human embryonic lung (HEL) cells; assay type: functional, cell-based
HEL [24] = assay: Antiviral activity against thymidine kinase-positive (TK+) YS strain of Varicella zoster virus to reduce plaque formation in human embryonic lung (HEL) cells; assay type: functional, cell-based
HEL [25] = assay: Cytotoxicity (to alter cell morphology) against Varicella-Zoster virus in human embryonic lung (HEL) cells; assay type: functional
[26] = Cytotoxicity (to reduce cell growth) against Cytomegalovirus in human embryonic lung (HEL) cells; assay type: cell-based
HEL [27] = assay: Antiviral activity against thymidine kinase-positive (TK+) OKA strain of Varicella zoster virus to reduce plaque formation in human embryonic lung (HEL) cells; assay type: functional, cell-based

SMILES | MIC (E6SM [1]) | MIC (Vero [2]) | MIC (HeLa [3]) | MIC (E6SM [4]) | MCC (E6SM [5]) | MIC (E6SM [6]) | MIC (E6SM [7]) | MIC (Vero [8]) | MCC (HeLa [9]) | MIC (E6SM [10]) | MIC (HeLa [11]) | MIC (Vero [12]) | MIC (HeLa [13]) | MIC (Vero [14]) | MIC (E6SM [15]) | MIC (Vero [16]) | MCC (Vero [17]) | other results
Nc1nccc2c1ncn2[C@@H]1O[C@H](CO)[C@@H](O)[C@H]1O | > 400 µg/mL | 0.7 µg/mL (≈ 2.63 µM) | > 400 µg/mL | > 400 µg/mL | > 400 µg/mL | 0.7 µg/mL (≈ 2.63 µM) | 300 µg/mL (≈ 1130 µM) | 2 µg/mL (≈ 7.51 µM) | > 400 µg/mL | 0.7 µg/mL (≈ 2.63 µM) | 2 µg/mL (≈ 7.51 µM) | > 400 µg/mL | > 400 µg/mL | 4 µg/mL (≈ 15 µM) | 200 µg/mL (≈ 751 µM) | > 400 µg/mL | > 400 µg/mL | 
OCCSCc1c(-c2ccccc2)nc2ccccn12 | 100 µg/mL (≈ 352 µM) | > 10 µg/mL | > 100 µg/mL | > 40 µg/mL | > 200 µg/mL | > 40 µg/mL | 70 µg/mL (≈ 246 µM) | > 10 µg/mL | > 100 µg/mL | 70 µg/mL (≈ 246 µM) | > 100 µg/mL | 20 µg/mL (≈ 70.3 µM) | > 100 µg/mL | 20 µg/mL (≈ 70.3 µM) | > 40 µg/mL | 70 µg/mL (≈ 246 µM) | 40 µg/mL | MCC (HEL [18]): > 40 µg/mL; IC50 (HEL [19]): 25 µg/mL (≈ 87.9 µM); CC50 [20]: 80 µg/mL (≈ 281 µM); IC50 (HEL [21]): 10 µg/mL (≈ 35.2 µM); IC50 (HEL [22]): 26 µg/mL (≈ 91.4 µM); IC50 (HEL [23]): 20 µg/mL (≈ 70.3 µM); IC50 (HEL [24]): 35 µg/mL (≈ 123 µM); MCC (HEL [25]): > 40 µg/mL; CC50 [26]: 80 µg/mL (≈ 281 µM); IC50 (HEL [27]): 28 µg/mL (≈ 98.5 µM)
